Like-named read-outs stand apart in the source and are kept apart here.
Assays:
OCT3 [1] = molecular target: T1, OCT3 (Homo sapiens, UniProt O75751); test: ASP+ uptake kinetics in HEK-293 cells overexpressing OCT3; format: cell-based; conditions: read-out: Km of OCT3-mediated ASP+ uptake; 2 min uptake, 37°C; OCT3-specific uptake (OCT3 minus empty vector)
T1 sequence (O75751 1-556): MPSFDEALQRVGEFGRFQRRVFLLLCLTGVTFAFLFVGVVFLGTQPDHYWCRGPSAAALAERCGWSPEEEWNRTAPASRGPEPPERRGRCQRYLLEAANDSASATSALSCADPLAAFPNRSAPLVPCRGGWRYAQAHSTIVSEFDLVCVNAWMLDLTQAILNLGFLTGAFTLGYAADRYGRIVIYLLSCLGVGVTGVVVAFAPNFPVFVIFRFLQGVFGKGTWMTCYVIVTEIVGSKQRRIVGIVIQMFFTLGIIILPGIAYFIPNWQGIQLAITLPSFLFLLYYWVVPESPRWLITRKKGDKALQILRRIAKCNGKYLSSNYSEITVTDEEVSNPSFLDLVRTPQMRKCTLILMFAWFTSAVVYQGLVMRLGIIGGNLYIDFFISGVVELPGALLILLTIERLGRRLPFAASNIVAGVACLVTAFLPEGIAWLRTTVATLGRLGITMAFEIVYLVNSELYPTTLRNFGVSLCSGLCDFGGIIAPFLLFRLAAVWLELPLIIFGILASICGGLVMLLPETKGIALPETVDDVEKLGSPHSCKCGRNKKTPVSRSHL

OCT3 [2] = molecular target: T1, OCT3; test: High throughput screen: inhibition of OCT3-mediated ASP+ uptake in HEK-293 cells stably expressing OCT3; format: cell-based; conditions: for inhibition at 20 µM: HEK293
OCT3 [3] = molecular target: T1, OCT3; test: Predicted DDI potential: ratio of plasma CMAX (total or unbound) to predicted OCT3 IC50; conditions: unbound plasma CMAX over predicted OCT3 IC50
[4] = total maximum plasma concentration; ref http://www.micromedexsolutions.com/; cited from earlier work
[5] = plasma protein binding used for unbound CMAX; source not given; cited from earlier work
OCT3 [6] = molecular target: T1, OCT3; conditions: read-out: Experimental IC50; OCT3 inhibition, literature value; ref 1 (Bourdet et al., 2005); cited from earlier work
[7] = cited from earlier work; for FDA product insert: warnings, precautions and major adverse reactions: cardiovascular / CNS related, ref FDA product insert
OCT3 [8] = molecular target: T1, OCT3; test: IC50 determination against OCT3-mediated ASP+ uptake in HEK-293 cells overexpressing OCT3; format: cell-based
OCT3 [9] = molecular target: T1, OCT3; test: IC50 determination against OCT3-mediated [14C]metformin uptake in HEK-293 cells overexpressing OCT3; format: cell-based

## CN(C)c1ccc(/C=C/c2cc[n+](C)cc2)cc1 [ASP^+, 4-Di-1-ASP]
OCT3 [1]
  Km: 33.3 µM

## NC(N)=Nc1nc(CSCCC(N)=NS(N)(=O)=O)cs1 [famotidine]
OCT3 [2]
  IC50: 9.9 µM
  inhibition at 20 µM: 66.9%
OCT3 [3]
  Unbound CMAX/IC50: 28.0
[4]
  Cmax: 308 µM
[5]
  Protein binding: 10%
OCT3 [6]
  IC50: 6.7 ± 2 µM
[7]
  FDA product insert: warnings, precautions and major adverse reactions: Warnings and precautions: Central Nervous System (CNS) Adverse Reactions: Advise elderly patients and those with moderate and severe renal impairment of the risk of CNS adverse reactions, including confusion, delirium, hallucinations, disorientation, agitation, seizures, and lethargy.
[7]; stated in discussion, ref Table SII, 60
  Neurological side effects: neurological side effects

## O=c1n(CCCN2CCN(c3cccc(Cl)c3)CC2)nc2ccccn12 [trazodone]
OCT3 [2]
  IC50: < 5 µM
  inhibition at 20 µM: 94.5%
OCT3 [8]
  IC50: 5.2 µM
OCT3 [9]
  IC50: 2.5 µM
OCT3 [3]
  Unbound CMAX/IC50: 0.15
[4]
  Cmax: 7.6 µM
[5]
  Protein binding: 90%
[7]
  FDA product insert: warnings, precautions and major adverse reactions: warnings and precautions related to cardiovascular side-effects
[7]; listed as Trazodone
  FDA product insert: warnings, precautions and major adverse reactions: Warnings and precautions: Cardiac Arrhythmias: Increases the QT interval. Avoid use with drugs that also increase the QT interval and in patients with risk factors for prolonged QT interval.

Source: PMC9246766 (Pharmaceutical research, 2022)
